According to the supplement of paper PMC5908809:

Assays:
Assay in all cases: relative IC50 (inflection point of fitted viability curve, relative to fitted max inhibition); higher = less sensitive
Details in all cases: 72 h
KAI3 (IL-2 2.5 ng/mL) = system: KAI3 (IL-2 2.5 ng/mL)
Description: (§1)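 Drug sensitivity and resistance testing: 5 concentrations over a 10,000-fold range, 72 h at 37 °C, viability by CellTiter-Glo normalised to DMSO and benzethonium chloride controls. IC50 is the inflection point of a logistic fit (min fixed at 0, max fitted), so it is relative to the fitted maximal inhibition. Kept only where fitted max inhibition is at least 50%.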

KHYG-1 (IL-2 2.5 ng/mL) = system: KHYG-1 (IL-2 2.5 ng/mL)
Description: as §1

NK-92 (IL-2 2.5 ng/mL) = system: NK-92 (IL-2 2.5 ng/mL)
Description: as §1

NK-YS (IL-2 2.5 ng/mL) = system: NK-YS (IL-2 2.5 ng/mL)
Description: as §1

NKL (IL-2 2.5 ng/mL) = system: NKL (IL-2 2.5 ng/mL)
Description: as §1

[1] = system: normal primary NK cells, pool 1 (3 donors) (IL-2 2.5 ng/mL)
Description: as §1

[2] = system: normal primary NK cells, pool 1 (3 donors), resting (IL-2 0 ng/mL)
Description: as §1

[3] = system: normal primary NK cells, pool 2 (3 donors) (IL-2 2.5 ng/mL)
Description: as §1

[4] = system: normal primary NK cells, pool 3 (3 donors) (IL-2 2.5 ng/mL)
Description: as §1

DERL-7 (IL-2 2.5 ng/mL) = system: DERL-7 (IL-2 2.5 ng/mL)
Description: as §1

IMC-1 (IL-2 20 ng/mL) = system: IMC-1 (IL-2 20 ng/mL)
Description: as §1

SNK-6 (IL-2 2.5 ng/mL) = system: SNK-6 (IL-2 2.5 ng/mL)
Description: as §1

YT (IL-2 2.5 ng/mL) = system: YT (IL-2 2.5 ng/mL)
Description: as §1

SMILES	relative IC50 (KAI3 (IL-2 2.5 ng/mL)) [µM]	relative IC50 (KHYG-1 (IL-2 2.5 ng/mL)) [µM]	relative IC50 (NK-92 (IL-2 2.5 ng/mL)) [µM]	relative IC50 (NK-YS (IL-2 2.5 ng/mL)) [µM]	relative IC50 (NKL (IL-2 2.5 ng/mL)) [µM]	relative IC50 [1] [µM]	relative IC50 [2] [µM]	relative IC50 [3] [µM]	relative IC50 [4] [µM]	relative IC50 (DERL-7 (IL-2 2.5 ng/mL)) [µM]	relative IC50 (IMC-1 (IL-2 20 ng/mL)) [µM]	relative IC50 (SNK-6 (IL-2 2.5 ng/mL)) [µM]	relative IC50 (YT (IL-2 2.5 ng/mL)) [µM]
Cc1ccc(-n2nc(C(C)(C)C)cc2NC(=O)Nc2ccc(OCCN3CCOCC3)c3ccccc23)cc1 [Doramapimod]	0.362	2.14	1.91	1.3	0.37	3.69	2.92	3.23	2.98	–	–	–	–
COC(=O)N[C@@H](C)CNc1nccc(-c2cn(C(C)C)nc2-c2cc(Cl)cc(NS(C)(=O)=O)c2F)n1 [Encorafenib]	–	0.0343	–	–	–	> 1	–	> 1	> 1	–	–	–	–
COc1cc([C@@H]2c3cc4c(cc3[C@@H](O[C@@H]3O[C@@H]5CO[C@@H](C)O[C@H]5[C@H](O)[C@H]3O)[C@H]3COC(=O)[C@H]23)OCO4)cc(OC)c1O [Etoposide]	0.0732	0.435	0.646	0.161	0.0473	1.83	0.743	1.92	–	0.134	0.137	0.615	1.08
O=S(=O)(c1cccc2cnccc12)N1CCCNCC1 [Fasudil]	6.87	–	–	–	–	8.17	–	10.9	15.9	–	–	–	8.76
CCCCCCCCc1ccc(CCC(N)(CO)CO)cc1 [Fingolimod]	1.67	2.29	3.26	2.28	1.4	2.45	3.33	1.93	3.41	2.03	2.31	2.06	2.45
O=P1(NCCCl)OCCCN1CCCl (configuration not stated) [Ifosfamide]	> 10	> 10	> 10	–	> 10	–	–	> 10	> 10	> 10	> 10	–	> 10
CN[C@@H](C)C(=O)N[C@H](C(=O)N1CCC[C@H]1c1nc(C(=O)c2ccc(F)cc2)cs1)C1CCCCC1 [LCL161]	2.94	0.251	2.9	–	–	1.04	2.52	0.772	0.932	1.39	–	–	–
C[C@]12O[C@H](C[C@]1(O)CO)n1c3ccccc3c3c4c(c5c6ccccc6n2c5c31)CNC4=O [Lestaurtinib]	0.0119	0.016	0.0311	0.085	0.0281	0.0209	–	0.0215	0.0441	0.0286	0.0967	0.0385	0.0783
O=C(O)CC[C@H]1CC[C@@](c2cc(F)ccc2F)(S(=O)(=O)c2ccc(Cl)cc2)CC1 [MK-0752]	–	–	–	–	–	–	> 1	> 1	–	–	–	–	–
CN(Cc1cnc2nc(N)nc(N)c2n1)c1ccc(C(=O)N[C@@H](CCC(=O)O)C(=O)O)cc1 [Methotrexate]	0.018	0.0178	0.0211	0.0191	0.0384	–	–	> 5	> 5	0.268	0.0261	0.00991	0.0137
N#CCNC(=O)c1ccc(-c2ccnc(Nc3ccc(N4CCOCC4)cc3)n2)cc1 [Momelotinib]	0.205	0.173	0.346	0.796	0.178	0.177	–	0.81	1	0.394	1.8	0.891	1.14
COc1nc(N)nc2c1ncn2[C@@H]1O[C@H](CO)[C@@H](O)[C@@H]1O [Nelarabine]	0.292	–	–	–	1.81	0.406	0.0386	0.322	0.2	–	> 10	–	–
NS(=O)(=O)OC[C@@H]1C[C@@H](n2ccc3c(N[C@H]4CCc5ccccc54)ncnc32)C[C@@H]1O [Pevonedistat]	0.0487	0.069	0.633	0.507	0.448	0.156	–	0.449	0.335	0.43	0.107	0.0397	0.0551
CS(=O)(=O)N1CCN(Cc2cc3nc(-c4cccc5[nH]ncc45)nc(N4CCOCC4)c3s2)CC1 [Pictilisib]	1.49	2.01	0.421	1.18	0.821	1.12	0.694	1.95	–	0.472	> 10	–	1.26
Cc1ccc(C(=O)Nc2ccc(CN3CCN(C)CC3)c(C(F)(F)F)c2)cc1C#Cc1cnc2cccnn12 [Ponatinib]	0.213	0.27	0.425	–	0.0961	0.24	0.0553	0.335	0.415	0.156	> 1	–	0.121
C[C@]12C=CC(=O)C=C1CC[C@@H]1[C@@H]2[C@@H](O)C[C@@]2(C)[C@H]1CC[C@]2(O)C(=O)CO [Prednisolone]	> 10	–	> 10	–	0.0247	0.185	0.0699	0.165	–	0.0657	> 10	–	–
Cn1c(Nc2ccc(C(F)(F)F)cc2)nc2cc(Oc3ccnc(-c4ncc(C(F)(F)F)[nH]4)c3)ccc21 [RAF265]	–	–	0.175	–	–	–	0.0474	–	–	–	–	–	–
COc1cc(OC)c(/C=C/S(=O)(=O)Cc2ccc(OC)c(NCC(=O)O)c2)c(OC)c1 [Rigosertib]	0.0485	0.0358	0.0536	0.0404	0.043	–	0.84	–	–	0.0367	0.0375	0.0535	0.0469
C=CCN(/C=C1/C(=O)O[C@H](COC)[C@@]2(C)C1=C(O)C(=O)C1=C2[C@H](OC(C)=O)C[C@]2(C)C(=O)CC[C@@H]12)CC=C [Sonolisib]	–	–	–	–	–	1.2	1.63	–	–	–	–	–	–
CC(C)n1cnc2c(NCCc3ccc(O)cc3)nc(-c3csc4ccccc34)nc21 [StemRegenin 1]	3.18	2.45	1.18	–	1.62	–	1.9	3.42	–	0.112	–	3.86	2.53
CN(N=O)C(=O)N[C@@H](C=O)[C@@H](O)[C@H](O)[C@H](O)CO [Streptozocin]	> 10	–	> 10	–	> 10	> 10	> 10	–	> 10	> 10	–	–	–
CC/C(=C(\c1ccccc1)c1ccc(OCCN(C)C)cc1)c1ccccc1 [Tamoxifen]	2.45	–	2.94	–	1.43	2.06	1.68	2.59	–	1.68	–	3.7	2.7
NC(=S)N/N=C/c1ncccc1N [Triapine]	1.32	0.642	0.748	1.45	3.56	2.49	1.51	–	–	3.58	3.72	3.55	3.75
O=C(CCCCCCC(=O)Nc1ccc([C@H]2O[C@@H](CSc3nc(-c4ccccc4)c(-c4ccccc4)o3)C[C@@H](c3ccc(CO)cc3)O2)cc1)NO [Tubacin]	2.07	3.09	1.66	2.83	1.33	–	3.8	–	–	1.62	2.65	1.8	2.63
Clc1ccc(Nc2nnc(Cc3ccncc3)c3ccccc23)cc1 [Vatalanib]	–	–	–	–	–	> 10	–	–	> 10	–	–	–	–
O=C(CCCCCCC(=O)Nc1ccccc1)NO [Vorinostat]	–	0.531	0.467	1.17	0.384	0.376	0.394	1.1	1.98	0.69	2.29	0.713	1.47
Oc1nc(-c2ccc(C(F)(F)F)cc2)nc2c1CSCC2 [XAV-939]	–	–	–	–	–	–	> 10	–	–	–	–	0.968	–
